Experimental data published in patent US8114904B2, “Luminescence quenchers and fluorogenic probes for detection of reactive species” (Versitech Limited & Morningside Ventures Limited, priority 2008, dated 2012).

Tests used:
[1] = Detection of peroxynitrite: fluorescence spectra after addition of peroxynitrite
Experimental: Compound 10 obtained in Example 4 was dissolved in DMF to a concentration of 10 mM, and then the solution was diluted to 10μM by 0.1 M potassium phosphate buffer (pH 7.4). Peroxynitrite solution in 0.1 M NaOH was prepared by the method of Keith and Powell (Keith, W. G. & Powell, R. E.; Kinetics of decomposition of peroxynitrous acid; J. Chem. Soc. A, 1969, 1, 90), and its concentration in the stock solutions used was estimated by using an extinction coefficient of 1670 cm^−1 (mol/L)^−1 at 302 nm (Hughes and Nicklin; The chemistry of pernitrites. Part I. Kinetics of decomposition of pernitrious acid; J. Chem. Soc. A, 1968, 2, 450-452). Peroxynitrite stock solution was added into the solution of Compound 10 to provide various final concentrations, like 0, 2, 6, 10, 20, 30, 50 100, and 200 μM. Fluorescence spectra of the solutions were measured after 5 minutes under the same conditions as mentioned above.
Compound 12 obtained in Example 5 was dissolved in DMF to a concentration of 1 mM, and then the solution was diluted to 1 μM by 0.1 M potassium phosphate buffer (pH 7.4). Peroxynitrite solution in 0.1 M NaOH was prepared by the method of Keith and Powell (Keith, W. G. & Powell, R. E.; Kinetics of decomposition of peroxynitrous acid; J. Chem. Soc. A, 1969, 1, 90), and its concentration in the stock solutions used was estimated by using an extinction coefficient of 1670 cm^−1 (mol/L)^−1 at 302 nm (Hughes and Nicklin; The chemistry of pernitrites. Part I. Kinetics of decomposition of pernitrious acid; J. Chem. Soc. A, 1968, 2, 450-452). Peroxynitrite stock solution was added into the solution of Compound 12 to provide various final concentrations, like 0, 1, 2, 3, 4, 5, 6, and 7 μM. Fluorescence spectra of the solutions were measured after 5 minutes under the same conditions as mentioned above.
Compound 30 obtained in Example 7 was dissolved in DMF to a concentration of 10 mM, and then the solution was diluted to 10 μM by 0.1 M potassium phosphate buffer (pH 7.4). Peroxynitrite solution in 0.1 M NaOH was prepared by the method of Keith and Powell (Keith, W. G. & Powell, R. E.; Kinetics of decomposition of peroxynitrous acid; J. Chem. Soc. A, 1969, 1, 90), and its concentration in the stock solutions used was estimated by using an extinction coefficient of 1670 cm^−1 (mol/L)^−1 at 302 nm (Hughes and Nicklin; The chemistry of pernitrites. Part I. Kinetics of decomposition of pernitrious acid; J. Chem. Soc. A, 1968, 2, 450-452). Peroxynitrite stock solution was added into the solution of Compound 30 to provide various final concentrations. Fluorescence spectra of the solutions were measured after 5 minutes under the same conditions as mentioned above.

[2] = Emission spectra of the probe itself; assay type: physicochemical; conditions: Hitachi F2500, 700 V
Experimental: Compound 10 obtained in Example 4 was dissolved in DMF to a concentration of 10 mM, and then the solution was diluted to 10 μM by 0.1 M phosphate buffer (pH 7.4). The fluorescence spectrum of the 10 μM solution of Compound 10 was measured using a Hitachi F2500 fluorescence spectrometer and the photomultiplier voltage was 700 V. The slit width was 2.5 nm for both excitation and emission. The measurement was carried out at an excitation wavelength of 520 nm. The results shown in FIG. 1 indicate that Compound 10 itself is non-fluorescent.
Compound 12 obtained in Example 5 was dissolved in DMF to a concentration of 1 mM, and then the solution was diluted to 1 μM by 0.1 M phosphate buffer (pH 7.4). The fluorescence spectrum of the 1 μM solution of Compound 12 was measured using a Hitachi F2500 fluorescence spectrometer and the photomultiplier voltage was 700 V. The slit width was 2.5 nm for both excitation and emission. The measurement was carried out at an excitation wavelength of 515 nm. The results shown in FIG. 4 indicate that Compound 12 itself is non-fluorescent.
Compound 14 obtained in Example 6 was dissolved in DMF to a concentration of 1 mM, and then the solution was diluted to 1 μM by 0.1 M phosphate buffer (pH 7.4). The fluorescence spectrum of the 1 μM solution of Compound 14 was measured using a Hitachi F2500 fluorescence spectrometer and the photomultiplier voltage was 700 V. The slit width was 2.5 nm for both excitation and emission. The measurement was carried out at an excitation wavelength of 515 nm. The results shown in FIG. 6 indicate that Compound 14 itself is non-fluorescent.
Compound 30 obtained in Example 7 was dissolved in DMF to a concentration of 10 mM, and then the solution was diluted to 10 μM by 0.1 M phosphate buffer (pH 7.4). The fluorescence spectrum of the 10 μM solution of Compound 30 was measured using a Hitachi F7000 fluorescence spectrometer and the photomultiplier voltage was 900 V. The slit width was 2.5 nm for both excitation and emission. The measurement was carried out at an excitation wavelength of 520 nm.

[3] = test system: Murine J744.1 macrophages; experiment: Cell assay: detection of peroxynitrite in living cells by fluorescent microscopy; assay type: cell-based
Experimental: (§1) Murine J744.1 macrophages (ATCC, USA) were used to investigate the potential of Compound 22 (acetate form of Compound 10) for the detection of peroxynitrite in living cells. J744.1 macrophages were cultured in Dulbecco's Modified Eagle's Medium (DMEM) (Gibco) containing 10% heat-inactivated fetal bovine serum (Gibco) supplemented with 100 U/ml of penicillin and 100 μg/ml streptomycin at 37° C., 5% CO2. They were subcultured by scraping and seeded on six-well plates according to manufacture's instruction. The growth medium was changed every two to three days. Cells were grown to confluence prior to experiment. Murine J744.1 macrophages were incubated with Compound 22 (20 μM) for 1 hr and then washed three times with PBS buffer.
as §1, with “12 and 12a” for “22 (acetate form of Compound 10)”, “12 or 12a” for “22”, “buffer. […] The fluorescence was induced after treatment with LPS (lipopolysaccharide, 1 μg/ml) for 4 hrs (FIG. 9D and FIG. 10B).” for “buffer.”

For CN(c1ccc(CCC(=O)C(F)(F)F)cc1)c1cc2c(cc1Cl)C1(OC(=O)c3ccccc31)c1cc(Cl)c(O)cc1O2 (stereo not shown) [Compound 10], the “fluorescence intensity at 541 nm with increasing concentration of peroxynitrite” value ([1]; 10 μM probe, 0.1 M potassium phosphate buffer pH 7.4) was “increases linearly”, the “fluorescence intensity after the addition of peroxynitrite” value ([1]; 10 μM probe, 0.1 M potassium phosphate buffer pH 7.4, measured after 5 minutes, excitation 520 nm) was “increase significantly” and the “fluorescence of the probe itself” value ([2]; 10 μM, 0.1 M phosphate buffer pH 7.4, excitation 520 nm) was “non-fluorescent”.
In the case of CN(c1ccc(O)cc1)c1ccc2c(c1)Oc1cc(O)ccc1C21OC(=O)c2ccccc21 (stereo not shown) [Compound 12], the “fluorescence after treatment with LPS” value ([3]; 20 μM probe 1 hr, LPS 1 μg/ml for 4 hrs) is reported as “induced”, the subcellular localization ([3]; J744.1 macrophages) is reported as “may selectively localize in mitochondrials” and the “fluorescence observed in the absence of stimulants” value ([3]; J744.1 macrophages incubated with 20 μM probe for 1 hr) is reported as “very weak fluorescence”. For the same compound, the “colocalization with mitochondrial dye MitoTracker Red CMXRos” value ([3]; LPS-stimulated J744.1 macrophages, 20 μM) was “colocalized”, the “fluorescence intensity at 535 nm with increasing concentration of peroxynitrite” value ([1]; 1 μM probe, 0.1 M potassium phosphate buffer pH 7.4, data not shown) was “increases linearly” and the “fluorescence intensity after the addition of peroxynitrite” value ([1]; 1 μM probe, peroxynitrite 0-7 μM, 0.1 M potassium phosphate buffer pH 7.4, after 5 minutes, excitation 515 nm) was “increase significantly”. For the same compound, the “fluorescence of the probe itself” value ([2]; 1 μM, 0.1 M phosphate buffer pH 7.4, excitation 515 nm) was “non-fluorescent”.
